Test system: genes listed in Table 6 (CR marker panel), white adipose tissue
Experiment: Testing ingredients for mimicry of caloric restriction: feeding study, RT-qPCR of the Table 6 gene panel in white adipose tissue, fold change as percentage of the fold change in the CR group
Type: in vivo, C57BL/6J mice
Design: key to Avg. CRMI: points per gene: 11-20% mimicry = 1, 21-30% = 2...; opposite effect negative
Conditions: for Avg. CRMI: CR Mimetic Index, points per gene from mimicry score plus five points for significance; for Avg. mimicry: average over significantly changed genes; for CMII: mimetic index = average mimicry (fraction of CR) x number of significantly changed genes
Excerpt: C57BL/6J mice were purchased from Jackson Laboratories at 6 weeks of age and maintained as described previously in Barger J L, et al. (2008) A Low Dose of Dietary Resveratrol Partially Mimics Caloric Restriction and Retards Aging Parameters in Mice. PLoS ONE 3(6): e2264 (http://dx.doi.org/10.1371/journal.pone.0002264). Briefly, mice were individually housed in shoebox cages and provided with 24 grams (˜84 kcal) of AIN-93M diet per week (7 grams on Monday and Wednesday and 10 grams on Friday). Starting at 8 weeks of age and continuing until 22 weeks of age, mice were either a) maintained on the AIN-93M diet (control group), b) fed a Calorie Restricted (CR) diet providing 63 kcal/week of a modified AIN93M from 8-16 weeks of age and then further reduced to a diet providing 49 kcal/week of a modified AIN93M from 16-22 weeks of age; or c) were assigned to an AIN93M diet supplemented with one of the following test ingredients: 1) bezafibrate at a dose of 5,000 mg/kg diet; 2) metformin at a dose of 1,909 mg/kg diet; 3) L-carnitine at a dose of 1,800 mg/kg diet; 4) blood orange extract at a dose of 18 mg/kg of body weight; 5) purple corn extract at a dose of 22 mg/kg of body weight; 6) resveratrol at a dose of 30 mg/kg of body weight; and 7) quercetin at a dose of 17.6 mg/kg of body weight. At 22 weeks of age, tissues were collected from the mice, flash-frozen in liquid nitrogen and stored at −80° C. for later analysis.
In order to screen the ingredients for their ability to mimic CR, quantitative real-time PCR (RT-qPCR) analysis was performed on RNA isolated from white adipose tissue from all groups of mice. Experimental methods and data analysis for RT-qPCR experiments have been published previously in Barger, J L et al., (2008) Short-term consumption of a resveratrol-containing nutraceutical mixture mimics gene expression of long-term caloric restriction in mouse heart, Exp. Gerontology 43(9):859 (http://dx.doi.org/10.1016/j.exger.2008.06.013). Briefly, the magnitude of change in gene expression was determined for each of the genes listed in Table 6 for the CR and treatment groups compared to the control animals. Two-tailed t-tests (assuming equal variance) were used to determine if the change in expression for individual genes was statistically significant. The magnitude of the change in expression (“fold change”) values were log2-adjusted to fit normality assumptions for statistical analyses.
CR mimicry was expressed as the fold change observed in each gene for the test group as a percentage of the fold change observed for that gene in the CR group.
The ingredients tested were based on their mimetic effect across the gene panel.
Another ranking approach was used to reflect effects across all genes. A CR Mimetic Index (CRMI) was calculated per gene for each ingredient by assigning each a number of points based on its mimicry score for each gene. Positive points were given for positive mimicry values (11 to 20%=1 point, 21 to 30%=2 points, 31 to 40%=3 points, and so on). Negative mimicry values (i.e. where the gene expression effect was opposite that observed for CR) received corresponding negative scores (i.e. −11 to −20%=−1 point, −21 to −30%=−2 points, −31 to −40%=[…], and so on). Five points were added for statistical significance of a mimicry value.
In the experimental protocol of Example 2, bezafibrate at 5,000 mg/kg diet was also compared to lower doses (100 and 500 mg/kg).
Mimetic indices were calculated for the 500 mg/kg and 100 mg/kg doses as in Example 2.

[1] = 100 mg/kg diet, white adipose tissue
[2] = 500 mg/kg diet, white adipose tissue
[3] = 5000 mg/kg diet, white adipose tissue
[4] = fold change as percentage of CR fold change, white adipose tissue
[5] = white adipose tissue, RT-qPCR, C57BL/6J mice fed from 8 to 22 weeks of age, ingredient doses, only significantly changed genes shown
[6] = white adipose tissue, Table 6 gene panel, diet supplemented from 8 to 22 weeks of age, doses (bezafibrate 5,000 mg/kg diet)

CC(C)(Oc1ccc(CCNC(=O)c2ccc(Cl)cc2)cc1)C(=O)O [Bezafibrate, bezafibrate]
CR mimicry Acaca [1]: 20%
CR mimicry Cd68 [1]: 58%
CR mimicry Gpd2 [1]: 23%
CR mimicry Ifi27I2a [1]: 39%
CR mimicry Acaca [2]: 23%
CR mimicry Acss2 [2]: 17%
CR mimicry Gpd2 [2]: 31%
CR mimicry Me1 [2]: 18%
CR mimicry Nampt [2]: 87%
CR mimicry Parm1 [2]: 19%
CR mimicry Slc2a4 [2]: 69%
CR mimicry Acaca [3]: 59%
CR mimicry Acss2 [3]: 21%
CR mimicry Cd68 [3]: 58%
CR mimicry Gpd2 [3]: 93%
CR mimicry Ifi27I2a [3]: 75%
CR mimicry Me1 [3]: 24%
CR mimicry Nampt [3]: 233%
CR mimicry Ndufs4 [3]: 108%
CR mimicry Parm1 [3]: 47%
CR mimicry Slc2a4 [3]: 113%
Avg. CRMI: 128
Avg. mimicry [4]: 83%
Avg. CRMI (CR Mimetic Index, points per gene) (bezafibrate 100 mg/kg diet): 28
CMII (average mimicry as fraction of CR x number of significantly changed genes) (bezafibrate 100 mg/kg diet): 1.4
Avg. mimicry (bezafibrate 100 mg/kg diet): 35%
No. of genes significantly changed (bezafibrate 100 mg/kg diet, white adipose tissue gene panel): 4
Avg. CRMI (CR Mimetic Index, points per gene) (bezafibrate 500 mg/kg diet): 68
CMII (average mimicry as fraction of CR x number of significantly changed genes) (bezafibrate 500 mg/kg diet): 2.6
Avg. mimicry (bezafibrate 500 mg/kg diet): 38%
No. of genes significantly changed (bezafibrate 500 mg/kg diet, white adipose tissue gene panel): 7
Avg. CRMI (CR Mimetic Index, points per gene) (bezafibrate 5000 mg/kg diet): 128
CMII (average mimicry as fraction of CR x number of significantly changed genes) (bezafibrate 5000 mg/kg diet): 8.3
Avg. mimicry (bezafibrate 5000 mg/kg diet): 83%
No. of genes significantly changed (bezafibrate 5000 mg/kg diet, white adipose tissue gene panel): 10
CMII: 8.3
CR mimicry, Acaca (fold change as percentage of the fold change in the CR group) [5]: 59%
CR mimicry, Acss2 (fold change as percentage of the fold change in the CR group) [5]: 21%
CR mimicry, Cd68 (fold change as percentage of the fold change in the CR group) [5]: 58%
CR mimicry, Gpd2 (fold change as percentage of the fold change in the CR group) [5]: 93%
CR mimicry, Ifi27I2a (fold change as percentage of the fold change in the CR group) [5]: 75%
CR mimicry, Me1 (fold change as percentage of the fold change in the CR group) [5]: 24%
CR mimicry, Nampt (fold change as percentage of the fold change in the CR group) [5]: 233%
CR mimicry, Ndufs4 (fold change as percentage of the fold change in the CR group) [5]: 108%
CR mimicry, Parm1 (fold change as percentage of the fold change in the CR group) [5]: 47%
CR mimicry, Slc2a4 (fold change as percentage of the fold change in the CR group) [5]: 113%
No. of genes significantly changed [6]: 10

C[N+](C)(C)C[C@H](O)CC(=O)[O-] [L-carnitine]
Avg. CRMI: 55
Avg. mimicry [4]: 31%
CMII: 2.2
CR mimicry, Acaca (fold change as percentage of the fold change in the CR group) [5]: 5%
CR mimicry, Gpd2 (fold change as percentage of the fold change in the CR group) [5]: 15%
CR mimicry, Nampt (fold change as percentage of the fold change in the CR group) [5]: 84%
CR mimicry, Ndufs4 (fold change as percentage of the fold change in the CR group) [5]: 40%
CR mimicry, Parm1 (fold change as percentage of the fold change in the CR group) [5]: 3%
CR mimicry, Serpine1 (fold change as percentage of the fold change in the CR group) [5]: 52%
CR mimicry, Slc2a4 (fold change as percentage of the fold change in the CR group) [5]: 16%
No. of genes significantly changed [6]: 7

CN(C)C(=N)N=C(N)N [Metformin, metformin]
Avg. CRMI: 31
Avg. mimicry [4]: 16%
CMII: 0.6
CR mimicry, Acaca (fold change as percentage of the fold change in the CR group) [5]: 17%
CR mimicry, Gpd2 (fold change as percentage of the fold change in the CR group) [5]: 27%
CR mimicry, Me1 (fold change as percentage of the fold change in the CR group) [5]: 11%
CR mimicry, Parm1 (fold change as percentage of the fold change in the CR group) [5]: 10%
No. of genes significantly changed [6]: 4

O=c1c(O)c(-c2ccc(O)c(O)c2)oc2cc(O)cc(O)c12 [Quercetin, quercetin]
Avg. CRMI: 17
Avg. mimicry [4]: 20%
CMII: 0.4
ranking of CR mimicry among tested ingredients (ranking by mimetic index (CMII), Table 8): lowest degree of CR mimicry
CR mimicry, Gpd2 (fold change as percentage of the fold change in the CR group) [5]: 5%
CR mimicry, Slc2a4 (fold change as percentage of the fold change in the CR group) [5]: 35%
No. of genes significantly changed [6]: 2

Oc1ccc(C=Cc2cc(O)cc(O)c2)cc1 [Resveratrol, resveratrol]
Avg. CRMI: 35
Avg. mimicry [4]: 34%
CMII: 1.38
CR mimicry, Acaca (fold change as percentage of the fold change in the CR group) [5]: 8%
CR mimicry, Gpd2 (fold change as percentage of the fold change in the CR group) [5]: 10%
CR mimicry, Nampt (fold change as percentage of the fold change in the CR group) [5]: 65%
CR mimicry, Serpine1 (fold change as percentage of the fold change in the CR group) [5]: 55%
No. of genes significantly changed [6]: 4

Source: US20160208330A1, “IDENTIFYING MARKERS OF CALORIC RESTRICTION AND CALORIC RESTRICTION MIMETICS” (NSE Products, Inc., priority 2011, published 2016)
